Source: article PMC11284896 (Journal of Translational Internal Medicine, 2024)

Biological target: T1, ABCG2 (Homo sapiens, UniProt Q9UNQ0)
T1 sequence (Q9UNQ0 1-655): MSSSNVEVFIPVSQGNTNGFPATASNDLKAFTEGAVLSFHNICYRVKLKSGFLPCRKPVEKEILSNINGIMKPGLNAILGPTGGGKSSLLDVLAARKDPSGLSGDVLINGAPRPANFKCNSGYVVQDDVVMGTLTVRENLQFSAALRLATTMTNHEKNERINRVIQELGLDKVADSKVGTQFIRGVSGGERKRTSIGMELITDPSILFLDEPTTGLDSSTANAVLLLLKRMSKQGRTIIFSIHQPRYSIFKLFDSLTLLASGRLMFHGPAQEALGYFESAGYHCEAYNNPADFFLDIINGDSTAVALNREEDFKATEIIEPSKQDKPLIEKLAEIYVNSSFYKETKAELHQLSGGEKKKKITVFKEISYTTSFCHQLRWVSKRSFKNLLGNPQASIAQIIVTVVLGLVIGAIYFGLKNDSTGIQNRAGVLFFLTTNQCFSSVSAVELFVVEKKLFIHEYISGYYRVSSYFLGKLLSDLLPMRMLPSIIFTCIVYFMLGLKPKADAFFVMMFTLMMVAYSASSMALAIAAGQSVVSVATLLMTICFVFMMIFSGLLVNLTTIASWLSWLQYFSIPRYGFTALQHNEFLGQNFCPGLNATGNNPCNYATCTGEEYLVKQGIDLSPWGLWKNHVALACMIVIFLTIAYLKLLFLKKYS

O=C1c2c(O)ccc(O)c2C(=O)c2c(NCCNCCO)ccc(NCCNCCO)c21 [mitoxantrone]
radiolabelled substrate efflux and accumulation in ABCG2-overexpressing NCI-H460: the efflux of [^3H]-mitoxantrone from cells overexpressed ABCG2 transporter was considerably diminished in the presence of RN486
